Reference: paper PMC3783409, “Enzymatic Synthesis of RNAs Capped with Nucleotide Analogues Reveals the Molecular Basis for Substrate Selectivity of RNA Capping Enzyme: Impacts on RNA Metabolism” (PLoS ONE, 2013)
Read-outs that look alike come from different tables or passages of the source.

Tests used:
PBCV-1 GTase [1] = molecular target: T1, PBCV-1 GTase (Paramecium bursaria Chlorella virus 1, UniProt Q84424); test: Inhibition of the first step of the GTase reaction (E-GMP formation); format: biochemical; design: His-tag; made in house; details: for Effect on radiolabelled EpG signal: unlabelled nucleotide 2 mM, GTase 10 µM
T1 sequence (Q84424 whole entry): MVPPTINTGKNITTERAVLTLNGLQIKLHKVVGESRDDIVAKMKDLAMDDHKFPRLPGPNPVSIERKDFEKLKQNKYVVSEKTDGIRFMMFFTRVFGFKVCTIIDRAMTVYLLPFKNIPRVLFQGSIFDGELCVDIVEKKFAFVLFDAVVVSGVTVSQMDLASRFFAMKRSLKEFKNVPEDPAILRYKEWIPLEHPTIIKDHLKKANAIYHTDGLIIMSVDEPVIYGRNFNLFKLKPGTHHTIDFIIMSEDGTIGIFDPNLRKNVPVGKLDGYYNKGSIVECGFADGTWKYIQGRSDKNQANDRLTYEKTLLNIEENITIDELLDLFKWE
Experimental: Inhibition of the first step of the GTase reaction was evaluated by carrying out the standard first step GTase reaction in the presence of 0.2 pmol of [α-^32P] GTP and 2 mM of either unlabelled GTP or each unlabelled nucleotide analogue separately. The IC50 of nucleotide analogues was determined by carrying out the standard first step reaction in the presence of 0.2 pmol of [α-^32P] GTP and increasing concentrations of up to 2 mM of each nucleotide analogue. The reactions were stopped by the addition of EDTA to 10 mM and SDS to 1% and analyzed by electrophoresis through a 12.5% polyacrylamide gel containing 0.1% SDS. The radiolabelled proteins were visualized by autoradiography of the gel. Radiolabelled covalent complex formation was quantified by scanning the gel with a PhosphorImager (Amersham Biosciences).

PBCV-1 GTase [2] = molecular target: T1, PBCV-1 GTase; test: In vitro RNA capping efficiency (nuclease P1 / alkaline phosphatase digestion, TLC); details: for Relative efficiency of RNA capping, 1st and 2nd steps: nucleotide 2 mM, normalized onto the value obtained with GTP
PBCV-1 GTase [3] = molecular target: T1, PBCV-1 GTase; test: Formation of the covalent enzyme-nucleotide intermediate (SDS-PAGE, Coomassie blue); format: biochemical; design: His-tag; made in house; details: nucleotide analogue 2 mM, magnesium ions 5 mM
Experimental: The standard first step reaction was carried out in the presence of each nucleotide analogue (2 mM) in the presence or absence of potassium pyrophosphate (1 mM). The reactions were resolved on SDS-PAGE followed by Coomassie blue staining.

eIF4E protein = molecular target: T2, eIF4E protein (Mus musculus, UniProt P63073); test: Binding of free NTP to purified eIF4E (fluorescence saturation isotherm); design: species or system murine; details: 2 µM protein, pH 8.0
T2 construct: His-tag; made in house; host or cells: bacteria
T2 sequence (P63073 whole entry): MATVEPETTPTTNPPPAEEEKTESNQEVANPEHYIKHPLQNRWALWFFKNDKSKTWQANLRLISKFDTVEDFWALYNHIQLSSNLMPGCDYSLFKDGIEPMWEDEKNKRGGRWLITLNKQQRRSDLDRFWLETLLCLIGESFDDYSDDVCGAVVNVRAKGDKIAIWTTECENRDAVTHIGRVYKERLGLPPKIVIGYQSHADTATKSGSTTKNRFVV
Experimental: The binding of RNAs harboring modified RNA cap structures to the eIF4E protein was evaluated by fluorescence spectroscopy as described previously [23]. Briefly, excitation was performed at a wavelength of 290 nm fluorescence using a Hitachi F-2500 fluorescence spectrophotometer. Background emission was eliminated by subtracting the signal from the buffer containing the RNA substrate. The extent to which the RNA binds to purified eIF4E protein was determined by monitoring the fluorescence emission of a fixed concentration of proteins with and without the appropriate RNA (2 µM).
(B) Increasing amounts of NTP were added to a 2 µM solution of the purified protein in a binding buffer (50 mM Tris/HCl, pH 8.0, and 50 mM KOAc) and following excitation of tryptophan residues at 290 nm the emission spectrum was scanned from 310 to 440 nm. […] The data was fit to a binding curve.

PBCV-1 GTase [4] = molecular target: T1, PBCV-1 GTase; test: Transfer of nucleotide analogues onto internally labelled 50 nt RNA (Urea-PAGE); details: 32P-internally labelled RNA
[5] = read-out: IC50 for E-GMP formation, 1st step, 0.2 pmol [α-32P] GTP, PBCV-1 GTase 10 µM, analogue up to 2 mM, pH 7.5, 1hr at 30°C

| Structure (SMILES) | IC50 (PBCV-1 GTase [1]; [5]) | Relative efficiency of RNA capping, 1st and 2nd steps (PBCV-1 GTase [2]) | further results |
| --- | --- | --- | --- |
| Cn1c(N)nc2c(ncn2[C@@H]2O[C@H](COP(=O)(O)OP(=O)(O)OP(=O)(O)O)[C@@H](O)[C@H]2O)c1=O [A1, N1-Me GTP] | 80 µM | 1.1 | Covalent intermediate: slower migrating species on SDS-PAGE (PBCV-1 GTase [3]): appearance of a slower migrating species |
| CSc1ncnc2c1ncn2[C@@H]1O[C@H](COP(=O)(O)OP(=O)(O)OP(=O)(O)O)[C@@H](O)[C@H]1O [A10, 6-Me thio ITP] | 1200 µM |  | Transferability of covalent intermediate onto RNA (PBCV-1 GTase [2]; 5’-α terminally labelled RNA, TLC): clearly not transferable onto RNA |
| Nc1nc2c(ncn2[C@@H]2O[C@H](COP(=O)(O)OP(=O)(O)OP(=O)(O)O)[C@@H](O)[C@H]2O)c(=O)[nH]1 [GTP, reference compound] |  | 1.0 | IC50 (PBCV-1 GTase [1]): 100 µM; Effect on radiolabelled EpG signal (PBCV-1 GTase [1]): maximum loss of the radiolabelled EpG signal; Kd for purified eIF4E (eIF4E protein): much higher apparent binding constant; Formation of capped RNA (slower migrating species) (PBCV-1 GTase [4]): formation of a slower migrating species corresponding to the capped RNA; Fraction of capped RNA over the total transcripts (PBCV-1 GTase [2]; cap donor 2 mM): 0.35 ±0.05 |
| Nc1nc2c(nc(Br)n2[C@@H]2O[C@H](COP(=O)(O)OP(=O)(O)OP(=O)(O)O)[C@@H](O)[C@H]2O)c(=O)[nH]1 [A13, 8-Bromo GTP] | 1500 µM | 0.40 |  |
| O=c1[nH]cnc2c1ncn2[C@@H]1O[C@H](COP(=O)(O)OP(=O)(O)OP(=O)(O)O)[C@@H](O)[C@H]1O [A2, ITP] | 340 µM | 1.3 | Formation of capped RNA (slower migrating species) (PBCV-1 GTase [4]): formation of a slower migrating species corresponding to the capped RNA; Covalent intermediate: slower migrating species on SDS-PAGE (PBCV-1 GTase [3]): appearance of a slower migrating species |
| CSc1nc(N)nc2c1ncn2[C@@H]1O[C@H](COP(=O)(O)OP(=O)(O)OP(=O)(O)O)[C@@H](O)[C@H]1O [A8, 6-Me thio GTP] | 430 µM | 0.07 |  |
| COc1nc(N)nc2c1ncn2[C@@H]1O[C@H](COP(=O)(O)OP(=O)(O)OP(=O)(O)O)[C@@H](O)[C@H]1O [A7, O6-Me GTP] | 150 µM | 0.48 | RNA capping (transfer onto RNA) relative to GTP (PBCV-1 GTase [2]): ~ 50% |
| Nc1nc(N)c2ncn([C@@H]3O[C@H](COP(=O)(O)OP(=O)(O)OP(=O)(O)O)[C@@H](O)[C@H]3O)c2n1 [A4, 2-Amino ATP] | > 2000 µM |  |  |
| Nc1nc(Cl)c2ncn([C@@H]3O[C@H](COP(=O)(O)OP(=O)(O)OP(=O)(O)O)[C@@H](O)[C@H]3O)c2n1 [A5, 2-Amino-6 Cl purine RTP] | 160 µM | 0.08 | RNA capping (transfer onto RNA) relative to GTP (PBCV-1 GTase [2]): 8% |
| O=P(O)(O)OP(=O)(O)OP(=O)(O)OC[C@H]1O[C@@H](n2cnc3c(Cl)ncnc32)[C@H](O)[C@@H]1O [A11, 6-Cl purine RTP] | > 2000 µM |  |  |
| Nc1nc2c(nc(I)n2[C@@H]2O[C@H](COP(=O)(O)OP(=O)(O)OP(=O)(O)O)[C@@H](O)[C@H]2O)c(=O)[nH]1 [A14, 8-Iodo GTP] | 420 µM | 1.0 |  |
| Nc1nc2c(ccn2[C@@H]2O[C@H](COP(=O)(O)OP(=O)(O)OP(=O)(O)O)[C@@H](O)[C@H]2O)c(=O)[nH]1 [A16, 7-deaza GTP] | > 2000 µM |  |  |
| Nc1ncnc2c1ncn2[C@@H]1O[C@H](COP(=O)(O)OP(=O)(O)OP(=O)(O)O)[C@@H](O)[C@H]1O [ATP, reference compound] |  |  | IC50 (PBCV-1 GTase [1]; 0.2 pmol [α-32P] GTP, PBCV-1 GTase 10 µM, analogue up to 2 mM, pH 7.5, 1hr at 30°C, read-out: IC50 for E-GMP formation, 1st step): > 2000 µM; Effect on radiolabelled EpG signal (PBCV-1 GTase [1]): no apparent effect; Formation of capped RNA (slower migrating species) (PBCV-1 GTase [4]): no effect |
